# Experimental data published in ChEMBL document CHEMBL5036330, “Discovery of 8,9-seco-ent-Kaurane Diterpenoids as Potential Leads for the Treatment of Triple-Negative Breast Cancer” (J Med Chem, 2021).
# Calls of active or inactive are those of the source. No cut-off for these calls is given here.
# Tested on: MDA-MB-231
# Assay: Antitumor activity against human MDA-MB-231 cells xenografted in NOD/SCID mouse assessed as increase in LC3B expression in tumor tissue at 5 to 10 mg/kg, ip treated for 33 days by immunohistochemical analysis
# Assay type: functional, organism-based
# Conditions: dose 5-10 mg/kg, time 33.0 day
smiles,measurement,value
C=C1C(=O)C2=C[C@H]1CCC(=O)[C@]1(C)[C@H](O)CCC(C)(C)[C@H]1C[C@H]2O,Activity,Active
